# Measurements reported in PubChem BioAssay (NCI).
# Where “and” joins values, the source holds several entries; their conditions need not be identical. Identical values can stand only once.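 Cells were grown in 96-well plates and exposed to each compound for 48 hours at five concentrations; endpoints were interpolated linearly between bracketing concentrations, or set to the highest concentration if not reached. Abbreviation: GI50, concentration required for 50% inhibition of growth. TGI: concentration producing complete growth inhibition.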
# How the values were obtained:
# Assay in all cases: DTP human tumour cell line panel, 48 h
# 786-0 renal = system: 786-0 renal
# SK-MEL-5 melanoma = system: SK-MEL-5 melanoma
# HCT-116 colon = system: HCT-116 colon
# RXF 393 renal = system: RXF 393 renal
# SW-620 colon = system: SW-620 colon
# DU-145 prostate = system: DU-145 prostate
# IGROV1 ovarian = system: IGROV1 ovarian
# MDA-MB-231 breast = system: MDA-MB-231 breast
# NCI-H226 lung = system: NCI-H226 lung
# OVCAR-8 ovarian = system: OVCAR-8 ovarian
SMILES,GI50 (786-0 renal),TGI (786-0 renal),GI50 (SK-MEL-5 melanoma),TGI (SK-MEL-5 melanoma),GI50 (HCT-116 colon),TGI (HCT-116 colon),GI50 (RXF 393 renal),TGI (RXF 393 renal),GI50 (SW-620 colon),TGI (SW-620 colon),GI50 (DU-145 prostate),TGI (DU-145 prostate),GI50 (IGROV1 ovarian),TGI (IGROV1 ovarian),GI50 (MDA-MB-231 breast),TGI (MDA-MB-231 breast),GI50 (NCI-H226 lung),TGI (NCI-H226 lung),GI50 (OVCAR-8 ovarian),TGI (OVCAR-8 ovarian)
COc1ccc(C2=C(Br)C(=O)OC2)cc1Cl,34 µM,> 100 µM,29.1 µM,> 100 µM,20.4 µM,49.5 µM,26.8 µM,> 72.4 µM,32.2 µM,> 100 µM,20.8 µM,88.9 µM,45.9 µM,> 100 µM,24.7 µM,69.9 µM,25 µM,62.7 µM,20.2 µM,> 52.7 µM
CN(C)c1cc2c(cc1Sc1nc3c(N)nccc3n1CCNCC(C)(C)C)OCO2,3.89 µM,21.4 µM,0.713 µM,13.2 µM,0.381 µM,13.9 µM,0.665 µM,15.3 µM,0.383 µM,13.8 µM,0.732 µM,18.5 µM,0.56 µM,21.6 µM,0.585 µM,17.1 µM,1.69 µM,19.7 µM,0.399 µM,15.8 µM
NC(=O)c1cccc(N)c1,> 100 µM,> 100 µM,> 100 µM,> 100 µM,> 100 µM,> 100 µM,> 100 µM,> 100 µM,> 100 µM,> 100 µM,> 100 µM,> 100 µM,> 100 µM,> 100 µM,> 100 µM,> 100 µM,> 100 µM,> 100 µM,> 100 µM,> 100 µM
CCN1CCN(CCNc2nccc(-c3c(-c4cccc(O)c4)nc4sccn34)n2)S1(=O)=O,22.1 µM and 7.86 µM,32.5 µM and > 100 µM,5.28 µM and 6.28 µM,23.1 µM and 20.7 µM,9.72 µM and 3.63 µM,32.5 µM and 55.3 µM,4.02 µM and 5.06 µM,22.7 µM and 36.3 µM,21.1 µM and 15.7 µM,32.5 µM and 92.5 µM,16.1 µM and 8.51 µM,32.5 µM and > 100 µM,11.9 µM and 5.5 µM,32.5 µM and > 100 µM,10.5 µM and 7.3 µM,32.5 µM and > 100 µM,> 32.5 µM and 26.4 µM,> 32.5 µM and 84.3 µM,16.1 µM and 10.9 µM,32.5 µM and > 100 µM
CCN(CC)CCC(CNc1c2ccc([N+](=O)[O-])cc2nc2cc(OC)c(OC)cc12)c1ccccc1 (centres undefined),1.07 µM and 0.671 µM,2.54 µM and 1.93 µM,0.445 µM,1.47 µM,0.0898 µM and 0.0472 µM,1.14 µM and 0.491 µM,0.541 µM and 0.228 µM,1.77 µM and 0.662 µM,0.145 µM and 0.0727 µM,1.1 µM and 0.763 µM,0.134 µM and 0.0582 µM,1.04 µM and 0.301 µM,0.405 µM and 0.29 µM,1.66 µM and 1.02 µM,0.174 µM and 0.178 µM,0.627 µM and 0.73 µM,0.26 µM and 0.329 µM,0.869 µM and 1.47 µM,0.45 µM and 0.166 µM,1.87 µM and 0.978 µM
O=[N+]([O-])c1ccc(Oc2cccnc2)c([N+](=O)[O-])c1,3.43 µM,26.5 µM,3.04 µM,11.6 µM,2.43 µM,6.22 µM,3.8 µM,14.7 µM,3.27 µM,12.5 µM,2.96 µM,7.44 µM,3.95 µM,> 100 µM,2.9 µM,11.6 µM,2.97 µM,25.5 µM,3.52 µM,> 100 µM
S=c1cn[nH]c2ccc(Br)cc12,–,> 100 µM,–,> 100 µM,–,> 100 µM,–,70.7 µM,–,> 100 µM,–,> 100 µM,–,> 100 µM,–,> 100 µM,–,> 100 µM,–,> 100 µM
NC(Cc1cc(Br)c(O)c(Br)c1)C(=O)O (centres undefined),–,> 100 µM,–,> 100 µM,–,> 100 µM,–,> 100 µM,–,> 100 µM,–,> 100 µM,–,> 100 µM,–,> 100 µM,–,> 100 µM,–,> 100 µM
Cc1nc(NC(=O)COc2cccc(/C=C3\COc4ccccc4C3=O)c2)sc1C,1.73 µM,3.22 µM,1.86 µM,3.81 µM,1.53 µM,3.04 µM,1.78 µM,3.48 µM,1.08 µM,2.39 µM,2.1 µM,4.09 µM,0.43 µM,0.902 µM,2.63 µM,7.41 µM,3.32 µM,9.66 µM,2.36 µM,5.78 µM
O=C(O[C@H]1CN[C@H](C#Cc2cc3ncnc(Nc4ccc(Cc5ccccc5)cc4)c3s2)C1)N1CCOCC1,7.3 µM,> 25 µM,4.23 µM,8.83 µM,4.03 µM,8.16 µM,1.35 µM,7.11 µM,5.93 µM,17.7 µM,4 µM,11 µM,2.45 µM,> 20.1 µM,4.56 µM,14.2 µM,5.01 µM,15.7 µM,5.33 µM,> 23.4 µM
COc1ccc(S(=O)(=O)Nc2cc(/C=C\c3cc(OC)c(OC)c(OC)c3)cc(OC)c2OC)cc1OC,0.444 µM,> 100 µM,0.488 µM,13.1 µM,0.469 µM,> 100 µM,0.683 µM,4.55 µM,0.478 µM,> 100 µM,0.841 µM,> 100 µM,4.58 µM,> 100 µM,2.43 µM,> 100 µM,1.87 µM,> 100 µM,4.08 µM,> 100 µM
NC(=O)c1ncn(C2OC(CO)C(O)C2O)n1 (centres undefined),> 100 µM,> 100 µM,> 100 µM,> 100 µM,45.1 µM,> 100 µM,> 100 µM,> 100 µM,22.8 µM,> 100 µM,39.6 µM,> 100 µM,> 100 µM,> 100 µM,> 100 µM,> 100 µM,> 100 µM,> 100 µM,45.4 µM,> 100 µM
O=C1OCC2=C1C(c1ccccc1)c1cc3c(cc1N2CCO)CCC3 (centres undefined),0.0988 µM,> 14.5 µM,0.0762 µM,5.41 µM,0.0857 µM,5.42 µM,0.0597 µM,0.138 µM,0.0879 µM,> 25 µM,0.0778 µM,0.464 µM,0.0799 µM,0.774 µM,0.689 µM,> 25 µM,1.02 µM,> 25 µM,0.144 µM,> 25 µM
C[CH2][Sn]1([CH2]C)[O]C2C(O)OC(CO)C(O)C2[O]1 (centres undefined),23 µM,68.1 µM,34.1 µM,> 100 µM,77.7 µM,> 100 µM,27.6 µM,> 100 µM,20.2 µM,46.4 µM,86.8 µM,> 100 µM,38.7 µM,> 100 µM,14.4 µM,28.6 µM,13.2 µM,26.1 µM,> 100 µM,> 100 µM
CNC(=O)c1cc(Oc2ccc3nc(NC(=O)c4cc(C(F)(F)F)cc(C(F)(F)F)c4)sc3c2)ccn1,2.55 µM,8.07 µM,1.68 µM,3.63 µM,3.41 µM,11.9 µM,2.79 µM,8.37 µM,7.56 µM,63.8 µM,3.69 µM,15.9 µM,4.26 µM,27 µM,2.88 µM,6.63 µM,4.15 µM,17.4 µM,3.06 µM,13 µM
CCCCCCCCCCCCCCCCCC(=O)[O][Sn]([CH2]CCC)([CH2]CCC)[CH2]CCC,0.152 µM,0.305 µM,0.141 µM,0.272 µM,0.117 µM,0.25 µM,0.1 µM,0.253 µM,0.137 µM,0.289 µM,0.136 µM,0.271 µM,0.154 µM,0.367 µM,0.125 µM,0.361 µM,0.162 µM,0.319 µM,0.197 µM,0.451 µM
COC(=O)c1c2c(c[n+]([O-])c1C)C(=O)C(NCc1ccccc1)=CC2=O,1.69 µM,3.8 µM,0.175 µM,0.322 µM,0.269 µM,0.924 µM,1.05 µM,2.48 µM,0.319 µM,1.29 µM,1.05 µM,2.25 µM,0.368 µM,1.49 µM,0.333 µM,2.27 µM,1.23 µM,2.84 µM,0.311 µM,1.16 µM
N#CC(NC12CC3CC(CC(C3)C1)C2)c1ccccc1 (centres undefined),–,> 100 µM,–,> 100 µM,–,> 100 µM,–,> 100 µM,–,> 100 µM,–,> 100 µM,–,> 100 µM,–,> 100 µM,–,> 100 µM,–,> 100 µM
C[C@H]1O[C@@H](O[C@H]2[C@@H](O)C[C@H](O[C@H]3[C@@H](O)C[C@H](O[C@H]4CC[C@]5(C)C6C[C@@H](O)[C@]7(C)[C@@H](C8=CC(=O)OC8)CC[C@]7(O)C6CC[C@@H]5C4)O[C@@H]3C)O[C@@H]2C)C[C@H](O)[C@@H]1O (some centres undefined),0.06 µM,0.16 µM,0.0478 µM,0.122 µM,0.0207 µM,0.0972 µM,0.0634 µM,0.198 µM,0.049 µM,0.174 µM,0.0329 µM,0.0968 µM,0.145 µM,3.45 µM,0.265 µM,1.32 µM,0.102 µM,0.191 µM,0.0788 µM,0.198 µM
CC(C)[C@@H]1NC(=O)[C@]2(C)CSC(=N2)c2csc(n2)CNC(=O)C[C@@H](/C=C/CCS)OC1=O,0.454 µM,> 100 µM,0.0446 µM,0.197 µM,0.123 µM,1.08 µM,0.0521 µM,0.33 µM,0.227 µM,2.28 µM,0.147 µM,> 100 µM,0.119 µM,2.77 µM,0.317 µM,> 47.4 µM,0.403 µM,7.69 µM,0.0858 µM,> 100 µM
CC(/C=C/C=C/C=C/C=C/C=C/C(O)=C1/C(=O)C(CCC(=O)O)N(C)C1=O)=C\C(C)C(OC1CC(O)C(O)C(C)O1)C(C)C (centres undefined),–,11.1 µM,–,3.85 µM,–,7.15 µM,–,11.2 µM,–,14.6 µM,–,12.4 µM,–,4.48 µM,–,12.2 µM,–,11.8 µM,–,15.1 µM
Clc1ccc(N/N=C/c2ccccn2)nc1,0.339 µM,> 100 µM,0.423 µM,2.59 µM,0.305 µM,> 100 µM,0.492 µM,15.7 µM,0.468 µM,> 100 µM,0.445 µM,> 100 µM,0.441 µM,> 100 µM,0.463 µM,> 100 µM,0.401 µM,> 100 µM,0.425 µM,> 100 µM
Nc1nn(C(=O)Nc2ccc(Cc3ccccc3)cc2)c2ccc(Cl)cc12,4.59 µM,28.7 µM,0.33 µM,25.8 µM,0.354 µM,24.2 µM,15.1 µM,34.1 µM,0.724 µM,54.3 µM,11.7 µM,33.8 µM,19.9 µM,> 100 µM,9.48 µM,50.2 µM,13.5 µM,> 81.7 µM,14.8 µM,> 100 µM
Cc1ccccc1NC(=O)N/C(N)=N/c1nc2ccccc2s1,0.0646 µM,> 100 µM,0.065 µM,2.07 µM,0.0456 µM,–,0.03 µM,0.464 µM,0.0427 µM,> 100 µM,0.0833 µM,> 100 µM,0.0796 µM,> 100 µM,0.892 µM,> 100 µM,0.589 µM,> 100 µM,0.0979 µM,> 43.2 µM
Nc1ccccc1C#Cc1ccccc1C#Cc1ccccc1N,11.9 µM,31.2 µM,9.09 µM,22.9 µM,6.32 µM,21.5 µM,9.74 µM,32 µM,5.31 µM,18.4 µM,11.3 µM,28.6 µM,10.2 µM,30.4 µM,9.04 µM,24.6 µM,12.7 µM,31.1 µM,20.7 µM,49.4 µM
Cc1cc(NC(=O)NC(=O)c2ccccc2[N+](=O)[O-])ccc1Oc1ncc(Cl)cn1,–,26.4 µM,–,3.32 µM,–,18 µM,–,0.147 µM,–,> 100 µM,–,> 100 µM,–,98.9 µM,–,26.9 µM,–,12.8 µM,–,> 37.9 µM
